The values below are quoted from earlier work in patent publication US20100092557A1 (priority 2006, published 2010).

The conditions of the series: general statement in the background; species and matrix not given.
As usually defined, the half-life is how long it takes for the measured level to halve. Take `O=C(O)Cc1ccccc1Nc1c(Cl)cccc1Cl` [diclofenac]: the half-life was 1.1 h.
Take `O=C(O)c1ccccc1Nc1cccc(C(F)(F)F)c1` [flufenamic acid]: the half-life is 1.4 h.
For the compound `COc1ccc2c(c1)c(CC(=O)O)c(C)n2C(=O)c1ccc(Cl)cc1` [indomethacin], the half-life was 4.6 h.
As to `CCCCC1C(=O)N(c2ccccc2)N(c2ccccc2)C1=O` [phenylbutazone], the half-life is 68 h.
`CN1C(C(=O)Nc2ccccn2)=C(O)c2ccccc2S1(=O)=O` [piroxicam]: the half-life was 57 h.
`CC(C(=O)O)c1ccc(C(=O)c2ccccc2)s1` (stereo not drawn) [tiaprofenic acid]: the half-life is 3.0 h.
